The target of this assay is T1, Histone deacetylase 8 (Homo sapiens, UniProt Q9BY41).
T1 sequence (Q9BY41 whole entry): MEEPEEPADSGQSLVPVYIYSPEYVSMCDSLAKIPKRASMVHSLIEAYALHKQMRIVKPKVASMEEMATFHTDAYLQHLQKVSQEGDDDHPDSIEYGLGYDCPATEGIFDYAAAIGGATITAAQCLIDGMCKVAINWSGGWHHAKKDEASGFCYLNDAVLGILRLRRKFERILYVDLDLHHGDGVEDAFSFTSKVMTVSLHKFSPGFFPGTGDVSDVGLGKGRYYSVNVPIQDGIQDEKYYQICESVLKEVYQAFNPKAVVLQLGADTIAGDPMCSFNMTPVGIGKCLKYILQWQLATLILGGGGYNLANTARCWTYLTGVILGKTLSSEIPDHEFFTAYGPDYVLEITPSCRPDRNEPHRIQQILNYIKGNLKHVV
The experiment in a line: Fluorometric Assay: Compounds were tested for their ability to inhibit histone deacetylase 8 using an in vitro deacetylation assay. In a detailed procedure, 8 μl of HDAC8 enzyme solution (0.125 μg/μl) was transferred to assay plates (CORNING 3676). 1 μl of half-log diluted compounds were added into wells and incubated for 15 min at rt. After that, 8 μl of substrate solution was transferred to the wells and incubated for 30 min at rt. After deacetylation of the substrate by incubation with HDAC8 enzyme, subsequent exposure to a developing reagent produced a fluorophore that was directly proportional to the level of deacetylation. So 4 μl of developer regent (Cayman 10006394) was added into the wells in the assay plates and incubated for 15 min. The fluorescence signal was measured by a FlexStation3 plate reader (excitation wave length 340-360 nm; emission wave length 440-465 nm).

These results are taken from ChEMBL document CHEMBL3638605, “N-hydroxy-benzamids for the treatment of cancer” (2014).

Usually IC50 stands for the concentration at which inhibition is half-maximal. Low readings indicate greater potency, high ones weaker potency. As for `O=C(NO)c1ccc2c(c1)CC(Nc1nccc(-c3cccnc3)n1)CN2` (stereo unspecified), the IC50 is 470 nM.
